The source of these data is patent publication US8835629B2, “Anti-cancer agents” (The Walter and Eliza Hall Institute of Medical Research, priority 2010, dated 2014).

What is called half-life is the time in which the quantity being followed falls by half.

One data set concerns SW480. As to the kind of experiment: Antimitotic effects (G2/M cell cycle block, DNA staining, ModFit) on SW480. The format is cell-based, human. An excerpt:
(§1) For the initial studies two colon carcinoma cell lines (LIM1215 and SW480) and two breast cancer cell lines (MDA-MB-231 and MCF-7) were used. Taxol was used as comparator in these experiments (Table 1).

The subject of data set [1] is MDA-MB-231. The data set is described as follows: Antimitotic effects (G2/M cell cycle block, DNA staining, ModFit) on MDA-MB-231. The format is cell-based, human.
Source text: as §1

For a further data set, the system named is MCF-7. The data set is described as follows: Antimitotic effects (G2/M cell cycle block, DNA staining, ModFit) on MCF-7. The format is cell-based, human.
Source text: as §1

The test system of another data set is BaF/3. As to the kind of experiment: MTT cell proliferation assay, BaF/3. The conditions noted are these: Mus musculus, BaF3, 72 h; BaF/3 murine B-cell progenitor line; MTT after 3 days of incubation; read-out: IC50, inhibition of proliferation. Format: cell-based. The procedure: (§2) Compound 2 was tested on a series of cell lines to determine its activity and selectivity (Table 2). Cell proliferation was measured using the MTT assay (for protocol see Example 2.6) after 3 days of incubation with the inhibitor.
(§3) • Cells plated at […] in 100 μl medium+5% FCS (+Adds^1): • Cells incubated overnight: • Titrate inhibitors in a fresh plate in 150 μl medium • Transfer 100 μl titrated compounds to matching wells of the cell plate. • Incubate a further 4 days: • Add 10 μl MTS^2 or MTT^3 for 1.5 to 2 hours and read on Multiscanner (wavelengths 492/690) ^1 Additives for culture of LIM cell lines: 10 μM thioglycerol, 0.025 U/ml insulin, 1 μg/ml hydrocortisone. ^2 3-(4,5-dimethylthiazol-2-yl)-5-(3-carboxymethoxyphenyl)-2-(4-sulfophenyl)-2H-tetrazolium. ^3 3-(4,5-Dimethylthiazol-2-yl)-2,5-diphenyltetrazolium bromide
(§4) Cells are trypsinized and washed ×2 in medium+5% FCS and plate out at 10^4 cells per well in 100 μl.
(§5) Incubate plates o/n 37° C.+5%-10% CO2 incubator.
(§6) Inhibitors are dissolved in DMSO to make 10 mM stocks and titrated in a 96 well plate in duplicate to use as the stock for the test plate. […]
(§7) Read OD of plates on Thermo Multiskan Ex, at 560/690 nm.
(In general: Tetrazolium dyes change colour on reduction, which living cells bring about.)

The next data set relates to LIM 2405. The data set is described as follows: MTT cell proliferation assay, LIM 2405. The conditions noted are these: 72 h; LIM 2405 human colorectal carcinoma; MTT after 3 days of incubation; read-out: IC50, inhibition of proliferation. Format: cell-based. The procedure: as §2, §3, §4, §5, §6, §7
For another data set, the system named is SW 480. The data set is described as follows: MTT cell proliferation assay, SW 480. Format: cell-based. Conditions: SW480, 72 h; SW 480 human colorectal carcinoma; MTT after 3 days of incubation; read-out: IC50, inhibition of proliferation. The procedure: as §2, §3, §4, §5, §6, §7
In data set [2] the test system is MDA-MB-231. As to the kind of experiment: MTT cell proliferation assay, MDA-MB-231. The conditions noted are these: 72 h; MDA-MB-231 human breast carcinoma; MTT after 3 days of incubation; read-out: IC50, inhibition of proliferation. The format is cell-based. The procedure: as §2, §3, §4, §5, §6, §7
A short description of data set [3]: Dose escalation in mice (tolerability and toxicity). The format is in vivo. The procedure: Compound 1 was initially tested for tolerability and toxicity in mice. C57Bl/6 mice (aged 8-12 weeks) were injected subcutaneously with escalating doses of Compound 1 in a constant volume of DMSO. Mice were sacrificed 24 hrs post-injection. There were no adverse effects of doses up to 80 mg/kg within this time-frame. Thus the compound is well tolerated at doses that far exceed the IC50 observed “in vitro”.
These minor skin lesions healed readily within 2-3 days.

The nature of data set [4]: Pharmacokinetics of Compound 2 in mouse plasma (RP-HPLC). The format is in vivo. The conditions noted are these: mice. The procedure: FIG. 6: Plots of plasma concentrations of compound 2 in mice following a single subcutaneous dose of 50 mg/kg. Each point corresponds to an individual mouse. A: Semi-log plot of calculated concentrations of Peak 1 values. B: Semi-log plot of values including all metabolite peaks. C: Mean and se values comparing Peak 1 only with all peaks.
The pharmacokinetic parameters for Compound 2 were determined following injection into mice.
Mouse blood was collected by cardiac puncture after anaesthesia by CO2 gas. Mice were subsequently euthanized. The blood was transferred to an EDTA tube to prevent clotting and the plasma collected after separation by centrifugation. For each sample 25 μl Plasma Was Added To 75 μl Cold 0.1% TFA (v/v) With 5 μM Hydrocortisone (HC) As an internal standard. These processed samples were stored at −20° C. until required. On thawing they were clarified by centrifugation and the extracts were analyzed on RP-HPLC.
Each 100 μl plasma extract was separated on a Zorbax SB-C18, 2.1×150 mm, 5μ column using a linear 50 min gradient of acetonitrile in 0.1% (v/v) TFA at a flow rate of 0.1 ml per minute and a column temperature of 45° C. Detection was at 250 nm.
The concentration of drug in the plasma was determined by the internal standard method of calibration by comparing the ratios of drug to HC peak areas relative to the known standards. Plasma concentrations of compound 2 in the mice from one pharmacokinetics experiment are plotted in FIG. 6

The mark [5] stands for this setting: Homo sapiens, inhibitors added to cells in log-growth for 24 hrs, read-out: IC50 for progression through the cell cycle.

In the case of `COc1ccc(CNc2nc(NCc3ccc(CN)cc3)nc(NN3CC(=O)NC3=O)n2)cc1` (single isomer, unassigned) [Compound 2, 1-[4-(4-aminomethyl-benzylamino)-6-(4-methoxybenzylamino)-{1,3,5}-triazin-2-yl-amino]-imidazolidine-2,4-dione], the “% of Taxol (proportion of cells in G2M test/proportion of cells in G2M Taxol)” value is 113% in the data set with SW480 (24 hrs, standard 1 μM Taxol); 103% in the data set on MDA-MB-231 [1] (24 hrs, standard 1 μM Taxol); 102% in the data set with MCF-7 (24 hrs, standard 1 μM Taxol). Besides, the IC50 was determined as 250 nM with SW480 (setting [5]); 9 nM in the data set with MDA-MB-231 [1] (setting [5]); 9 nM in the data set on MCF-7 (Homo sapiens, MCF7, inhibitors added to cells in log-growth for 24 hrs, read-out: IC50 for progression through the cell cycle); 30 nM in the data set with BaF/3; 30 nM in the data set with LIM 2405; 30 nM in the data set with SW 480. For the same molecule, the IC50 in the data set on MDA-MB-231 [2] is 10 nM. For the same molecule, the “Time for healing of minor skin lesions” value in [3] (BALB/c nude, mouse, in vivo, 20 mg/kg) was in the range of 2 to 3 days. For the same molecule, the “Effect at injection site” value in [3] (at 21.5 and 64.5 mg/kg) was “indications of skin thinning at the injection site in some mice”. Also, the “Doses with no adverse effects in outward health or behaviour” value in data set [3] (mice, for 4 days) is listed as “up to 64.5 mg/kg”. Besides, the “Skin effect in BALB/c nude mice” value in [3] (mouse, in vivo, 20 mg/kg) is on record as “some skin lesions”. Besides, the “Time therapeutically significant concentrations are maintained in the serum” value in data set [4] is “up to 10 hr”. Further, the “Plateau concentration in the blood stream” value in [4] (50 mg/kg in aqueous solution, single subcutaneous dose) came out at 60 µM. Moreover, the “Level remaining in the blood stream for 6-10 hours” value in [4] (50 mg/kg in aqueous solution, for 6-10 hours) is “up to 6 μM”. Also, the half-life in data set [4] (mouse, plasma, subcutaneous, 50 mg/kg in aqueous solution, read-out: Elimination half-life (converted)) was around 1.5 h.
